Reference: patent US20240190872A1, “FABI INHIBITORS FOR GRAM-NEGATIVE PATHOGENS” (THE BOARD OF TRUSTEES OF THE UNIVERSITY OF ILLINOIS, priority 2021, published 2024)
≈ marks a conversion by molar mass, not a printed value.

Assays:
Assay type in all cases: cell-based
[1] = test system: S. aureus ATCC 29213; assay: Antimicrobial susceptibility test (MIC), micro-dilution broth; conditions: for MIC S. aureus 29213: S. aureus ATCC 29213
Excerpt: (§1) Bacterial strains. S. aureus ATCC 29213, E. coli MG1655, E. coli BAA-2340, E. coli BAA-2469, E. coli BAA-2471, E. cloacae BAA-2341, E. cloacae BAA-2468, K. pneumoniae BAA-1705, K. pneumoniae BAA-2342, K. pneumoniae BAA-2470, K. pneumoniae BAA-2472, and K. pneumoniae BAA-2473 were obtained from ATCC. E. coli JW5503 and E. coli JW3596 were obtained from the KEIO Collection. E. cloacae ATCC 29893 was provided by W. van der Donk (UIUC). E. coli AR-0346, E. coli AR-0349, E. coli AR-0493, E. coli AR-0495, and K. pneumoniae AR-0347 were obtained from the CDC and FDA AR Isolate Bank. E. coli F20987, E. coli M66623, E. cloacae S28901.1, K. pneumoniae M14723, K. pneumoniae M67198, K. pneumoniae M67297, K. pneumoniae S20595, K. pneumoniae S47889, A. baumannii W41979, A. baumannii F19521, A. baumannii M13100, and A. baumannii WO22 were obtained from the University of Illinois Chicago Medical School. A. baumannii KB304, A. baumannii KB343, and A. baumannii KB357 were provided by J. Quale.
(§2) Antimicrobial susceptibility tests. Susceptibility testing was performed in biological triplicate, using the micro-dilution broth method as outlined by the Clinical and Laboratory Standards Institute. Bacteria were cultured with cation-adjusted Muller-Hinton broth (Sigma-Aldrich, Cat# 90922) in round-bottom 96-well plates (Corning, Cat# 3788). Human serum (pooled gender, 0.2 μm filtered) was purchased from BioIVT (Hicksville, NY).

[2] = test system: E. coli ΔtolC (JW5503); conditions: for MIC E. coli ΔtolC: efflux deficient E. coli ΔtolC; for % @ 0.5 (in brackets after MIC): E. coli ΔTolC, 0.5 μg/mL
Protocol: (§3) The compounds synthesized, shown in Table 1, were evaluated against Gram-positive and Gram-negative reference strains (S. aureus 29213 and E. coli MG1655, respectively), as well as an efflux deficient E. coli strain (ΔtolC, JW5503).
as §1, §2

[3] = test system: E. coli MG1655; assay: Antimicrobial susceptibility test (MIC); conditions: for % @ 32 (in brackets after MIC): E. coli MG1655, 32 μg/mL
Excerpt: as §1, §2

[4] = test system: K. pneumoniae BAA 2472; assay: microbe, parasite or virus in culture; conditions: clinical isolate
Protocol: as §3, §1, §2

[5] = test system: A. baumannii AR 0033; assay: microbe, parasite or virus in culture; conditions: clinical isolate
Protocol: as §2

[6] = test system: A. baumannii AR 0273; assay: microbe, parasite or virus in culture; conditions: clinical isolate
Protocol: as §2

[7] = test system: A. baumannii AR 0299; assay: microbe, parasite or virus in culture; conditions: clinical isolate
Protocol: as §2

[8] = test system: A. baumannii AR 0313; assay: microbe, parasite or virus in culture; conditions: clinical isolate
Protocol: as §2

[9] = test system: E. coli AR 0048; assay: microbe, parasite or virus in culture; conditions: clinical isolate
Protocol: as §2

[10] = test system: E. coli AR 0085; assay: microbe, parasite or virus in culture; conditions: clinical isolate
Protocol: as §2

[11] = test system: K. pneumoniae AR 0066; assay: microbe, parasite or virus in culture; conditions: clinical isolate
Protocol: as §2

[12] = test system: K. pneumoniae AR 0113; assay: microbe, parasite or virus in culture; conditions: clinical isolate
Protocol: as §2

[13] = test system: K. pneumoniae AR 0560; assay: microbe, parasite or virus in culture; conditions: clinical isolate
Protocol: as §2

Cc1c(CN(C)C(=O)/C=C/c2cnc3c(c2)CC2(CC(N)C2)C(=O)N3)oc2ccccc12 (stereo not shown)
MIC S. aureus 29213 [1]: 0.016 µg/mL (≈ 0.0372 µM) | MIC E. coli ΔtolC [2]: 0.062 µg/mL (≈ 0.144 µM) | MIC E. coli MG1655 [3]: 4 µg/mL (≈ 9.29 µM)

Cc1c(CN(C)C(=O)/C=C/c2cnc3c(c2)CC(NCCN)C(=O)N3)oc2ccccc12.Cl (stereo not shown)
MIC S. aureus 29213 [1]: 0.5 µg/mL | % @ 0.25 (in brackets after MIC) ([1]; S. aureus ATCC 29213, 0.25 μg/mL): 80% | % @ 0.5 (in brackets after MIC) [2]: 50% | MIC E. coli ΔtolC [2]: 1 µg/mL | MIC E. coli MG1655 [3]: > 32 µg/mL | % @ 32 (in brackets after MIC) [3]: 35%

Cc1c(CN(C)C(=O)/C=C/c2cnc3c(c2)CC(NCCCN)C(=O)N3)oc2ccccc12.O=CO (stereo not shown)
MIC S. aureus 29213 [1]: 0.250 µg/mL | MIC E. coli ΔtolC [2]: 0.5 µg/mL | MIC E. coli MG1655 [3]: >32 µg/mL

Cc1c(CN(C)C(=O)/C=C/c2cnc3c(c2)CC(N)C(=O)N3)oc2cccc(F)c12.Cl (stereo not shown)
MIC S. aureus 29213 [1]: 0.031 µg/mL | MIC E. coli ΔtolC [2]: 0.125 µg/mL | MIC E. coli MG1655 [3]: 8 µg/mL

Cc1c(CN(C)C(=O)/C=C/c2cnc3c(c2)CC(N)C(=O)N3)oc2ccc(F)cc12.Cl (stereo not shown)
MIC S. aureus 29213 [1]: 0.125 µg/mL | % @ 0.062 (in brackets after MIC) ([1]; S. aureus ATCC 29213, 0.062 μg/mL): 60% | % @ 0.5 (in brackets after MIC) [2]: 60% | MIC E. coli ΔtolC [2]: 1 µg/mL | MIC E. coli MG1655 [3]: > 32 µg/mL | % @ 32 (in brackets after MIC) [3]: 40%

Cc1c(CN(C)C(=O)/C=C/c2cnc3c(c2)CC(N)C(=O)N3)oc2cc(F)ccc12.Cl (stereo not shown)
MIC S. aureus 29213 [1]: 0.062 µg/mL | MIC E. coli ΔtolC [2]: 0.5 µg/mL | MIC E. coli MG1655 [3]: > 32 µg/mL | % @ 32 (in brackets after MIC) [3]: 65%

Cc1c(CN(C)C(=O)/C=C/c2cnc3c(c2)CC(N)C(=O)N3)oc2c(F)cccc12.Cl (stereo not shown)
MIC S. aureus 29213 [1]: 0.016 µg/mL | MIC E. coli ΔtolC [2]: 0.062 µg/mL | MIC E. coli MG1655 [3]: 8 µg/mL | % @ 4 (in brackets after MIC) ([3]; E. coli MG1655, 4 μg/mL): 50-80%

Cc1c(CN(C)C(=O)/C=C/c2cnc3c(c2)CCC(CN)C(=O)N3)oc2ccccc12 (stereo not shown)
MIC K. pneumoniae BAA 2472 [4]: 32 µg/mL (≈ 76.5 µM) | MIC A. baumannii AR 0033 [5]: 16 µg/mL (≈ 38.2 µM) | MIC A. baumannii AR 0273 [6]: 32 µg/mL (≈ 76.5 µM) | MIC A. baumannii AR 0299 [7]: 32 µg/mL (≈ 76.5 µM) | MIC A. baumannii AR 0313 [8]: 32 µg/mL (≈ 76.5 µM) | MIC E. coli AR 0048 [9]: 16 µg/mL (≈ 38.2 µM) | MIC E. coli AR 0085 [10]: 16 µg/mL (≈ 38.2 µM) | MIC K. pneumoniae AR 0066 [11]: 32 µg/mL (≈ 76.5 µM) | MIC K. pneumoniae AR 0113 [12]: 32 µg/mL (≈ 76.5 µM) | MIC K. pneumoniae AR 0560 [13]: 16 µg/mL (≈ 38.2 µM)

Cc1c(CN(C)C(=O)/C=C/c2cnc3c(c2)CC2(CC(CN)C2)C(=O)N3)oc2ccccc12 (stereo not shown)
MIC K. pneumoniae BAA 2472 [4]: 32 µg/mL (≈ 72 µM) | MIC A. baumannii AR 0033 [5]: 32 µg/mL (≈ 72 µM) | MIC A. baumannii AR 0273 [6]: >32 µg/mL | MIC A. baumannii AR 0299 [7]: >32 µg/mL | MIC A. baumannii AR 0313 [8]: >32 µg/mL | MIC E. coli AR 0048 [9]: 32 µg/mL (≈ 72 µM) | MIC E. coli AR 0085 [10]: 16 µg/mL (≈ 36 µM) | MIC K. pneumoniae AR 0066 [11]: 32 µg/mL (≈ 72 µM) | MIC K. pneumoniae AR 0113 [12]: 32 µg/mL (≈ 72 µM) | MIC K. pneumoniae AR 0560 [13]: 32 µg/mL (≈ 72 µM)

NC1Cc2cc(C=CC(=O)N3CC4C=C(c5ccccc5)CC4C3)cnc2NC1=O (mixture of isomers)
MIC S. aureus 29213 [1]: 0.062 µg/mL | MIC E. coli ΔtolC [2]: 0.062 µg/mL | MIC E. coli MG1655 [3]: 16 µg/mL

NC1CCc2cc(C=CC(=O)N3CC4C=C(c5ccccc5)CC4C3)cnc2NC1=O (mixture of isomers)
MIC S. aureus 29213 [1]: 0.031 µg/mL | MIC E. coli ΔtolC [2]: 0.062 µg/mL | MIC E. coli MG1655 [3]: 8 µg/mL

Cc1c(CN(C)C(=O)C=Cc2cnc3c(c2)CC2(CC(CN)C2)C(=O)N3)oc2ccccc12 (mixture of isomers) [(±)-7]
MIC S. aureus 29213 [1]: 0.031 µg/mL | MIC E. coli ΔtolC [2]: 0.125 µg/mL | MIC E. coli MG1655 [3]: 16 µg/mL

Cc1c(CN(C)C(=O)C=Cc2cnc3c(c2)CC2(CCC(N)CC2)C(=O)N3)oc2ccccc12 (mixture of isomers) [(±)-8]
MIC S. aureus 29213 [1]: 0.016 µg/mL | MIC E. coli ΔtolC [2]: 0.062 µg/mL | MIC E. coli MG1655 [3]: 16 µg/mL
